Test results published in ChEMBL document CHEMBL3045308, “Design and synthesis of novel pyrethriods containing eugenol moiety” (2012).

How the values were obtained:
Type in all cases: functional
Culex quinquefasciatus [1] = assay: Insecticidal activity against Culex quinquefasciatus assessed as contact mortality at 0.025 mg/ml at 12 hr by standard immersion method relative to control
Culex quinquefasciatus [2] = assay: Insecticidal activity against Culex quinquefasciatus assessed as contact mortality at 0.025 mg/ml at 1 hr by standard immersion method relative to control
Culex quinquefasciatus [3] = assay: Insecticidal activity against Culex quinquefasciatus assessed as contact mortality at 0.025 mg/ml at 24 hr by standard immersion method relative to control
Culex quinquefasciatus [4] = assay: Insecticidal activity against Culex quinquefasciatus assessed as contact mortality at 0.025 mg/ml at 4 hr by standard immersion method relative to control

SMILES | mortality at 25 µg/mL (Culex quinquefasciatus [1]) [%] | mortality at 25 µg/mL (Culex quinquefasciatus [2]) [%] | mortality at 25 µg/mL (Culex quinquefasciatus [3]) [%] | mortality at 25 µg/mL (Culex quinquefasciatus [4]) [%]
C=CC(OC(=O)C1C(C=C(C)C)C1(C)C)c1ccc(OCC)c(OC)c1 (centres undefined) | 40 | 15 | 97 | 22
C=CC(OC(=O)C(c1ccc(Cl)cc1)C(C)C)c1ccc(OCC)c(OC)c1 (centres undefined) | 42 | 10 | 96 | 23
C=CC(OC(=O)C(c1ccc(Cl)cc1)C(C)C)c1ccc(OC(C)=O)c(OC)c1 (centres undefined) | 47 | 14 | 85 | 25
C=CC(OC(=O)C1C(C=C(C)C)C1(C)C)c1ccc(OC(C)=O)c(OC)c1 (centres undefined) | 34 | 10 | 88 | 25
CC(C)C(C(=O)OC(C#N)c1cccc(Oc2ccccc2)c1)c1ccc(Cl)cc1 (centres undefined) [FENVALERATE] | 40 | 10 | 88 | 18
C=CCC1=C(C)C(OC(=O)C2C(C=C(C)C)C2(C)C)CC1=O (centres undefined) [Allethrin] | 33 | 12 | 85 | 20
